ChEMBL document CHEMBL1921768, “Identification of novel CYP2A6 inhibitors by virtual screening” (Bioorg Med Chem, 2011)
pIC50, pKi: −log10 of the molar value.

target: T1, Cytochrome P450 2A6 (Homo sapiens, UniProt P11509); test: Inhibition of CYP2A6 in human liver microsomes assessed as inhibition of coumarin 7-hydroxylation after 10 mins by plate reader; type: ADME, Microsome; conditions: not given
T1 sequence (P11509 whole entry): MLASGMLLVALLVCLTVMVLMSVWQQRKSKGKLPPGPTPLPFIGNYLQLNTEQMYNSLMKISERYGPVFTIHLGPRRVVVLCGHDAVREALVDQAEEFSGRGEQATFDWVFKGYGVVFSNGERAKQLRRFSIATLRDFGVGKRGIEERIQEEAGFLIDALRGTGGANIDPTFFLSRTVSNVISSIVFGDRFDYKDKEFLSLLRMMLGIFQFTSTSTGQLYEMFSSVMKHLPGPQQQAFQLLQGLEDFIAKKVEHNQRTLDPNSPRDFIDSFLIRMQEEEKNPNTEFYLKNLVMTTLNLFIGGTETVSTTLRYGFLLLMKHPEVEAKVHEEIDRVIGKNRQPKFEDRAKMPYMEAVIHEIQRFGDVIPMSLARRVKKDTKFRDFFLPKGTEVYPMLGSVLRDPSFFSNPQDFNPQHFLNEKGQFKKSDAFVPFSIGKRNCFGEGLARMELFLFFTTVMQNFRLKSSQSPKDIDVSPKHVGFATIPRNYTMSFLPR

Row | pIC50 | Structure (SMILES)
1 | < 4.00 | N#Cc1c(Cl)cccc1OCC(F)(F)F
2 | 5.82 | NCc1csc2ccccc12
3 | < 4.00 | O=Cc1ccc(-c2cccs2)cc1
4 | < 4.00 | O=C(O)c1cc2ccccc2s1
5 | 7.00 | NCc1cc2ccccc2s1
6 | 5.77 | NCc1ccc2sccc2c1
7 | < 4.00 | N#CCSc1nnc(N)s1
8 | 5.19 | Brc1ccc2[nH]ccc2c1
9 | < 4.00 | Brc1cccc2[nH]ccc12
10 | 5.80 | O=Cc1csc2ccccc12

Row | Structure (SMILES) | pIC50
11 | N#Cc1ccc(C=O)cc1 | < 4.00

target: T1, Cytochrome P450 2A6; test: Inhibition of CYP2A6 in human liver microsomes assessed as inhibition of coumarin 7-hydroxylation after 30 mins preincubation by plate reader; type: ADME, Microsome; conditions: not given

Row | pIC50 | Structure (SMILES)
12 | 6.70 | NCc1csc2ccccc12
13 | 6.22 | NCc1ccc2sccc2c1
14 | 7.30 | O=Cc1csc2ccccc12

target: T1, Cytochrome P450 2A6; test: Irreversible inhibition of CYP2A6 in human liver microsomes assessed as coumarin 7-hydroxylation activity in presence of NADPH; type: ADME, Microsome; conditions: TDE = time-dependent effect

Row | inhibition (INH) | Structure (SMILES)
15 | tde | O=Cc1csc2ccccc12

target: T1, Cytochrome P450 2A6; test: Irreversible inhibition of CYP2A6 in human liver microsomes assessed as coumarin 7-hydroxylation activity after 1 to 5 mins in presence of NADPH; type: ADME, Microsome; conditions: not given

Row | inhibition (INH) | Structure (SMILES)
16 | Dose-dependent effect | O=Cc1csc2ccccc12

target: T2, CYP2A6 (Homo sapiens, UniProt P11509); test: (§1) Irreversible inhibition of CYP2A6 in human liver microsomes assessed as coumarin 7-hydroxylation activity by double reciprocal plot analysis in presence of NADPH; type: ADME, Microsome; conditions: human, liver microsomes, probe coumarin (7-hydroxylation)
T2 sequence (P11509 whole entry): T1 sequence (P11509 whole entry)

Row | kinact [s⁻¹] | Structure (SMILES)
17 | 0.006 | O=Cc1csc2ccccc12

target: T1, Cytochrome P450 2A6; test: as §1; type: ADME, Microsome; conditions: not given

Row | pKi | Structure (SMILES)
18 | 4.54 | O=Cc1csc2ccccc12
